Data from the supplement of paper PMC8882468.

Assays:
Test in all cases: CTG-3D luminescence at 96 h relative to day-0 seeding control (ratio to day 0); higher = more growth / less cytotoxicity; PDxO 3D drug screen, 96 h, CTG-3D normalised to day-0 seeding control.
HCI-027 = test system: HCI-027 (organoid from a triple-negative breast cancer xenograft)
HCI-012 = test system: HCI-012 (organoid from a breast cancer xenograft)
MDA-MB-231 = test system: MDA-MB-231
HCI-001 = test system: HCI-001 (organoid from a triple-negative breast cancer xenograft)
HCI-010 = test system: HCI-010 (organoid from a breast cancer xenograft)
HCI-011.E2 = test system: HCI-011.E2 (organoid from an ER-positive breast cancer xenograft)

C/C=C1\NC(=O)[C@H]2CSSCC/C=C/[C@H](CC(=O)N[C@H](C(C)C)C(=O)N2)OC(=O)[C@H](C(C)C)NC1=O [romidepsin]
CTG-3D luminescence at 96 h
Conditions | 12.5 pM | 0.00025 µM | 0.005 µM | 0.1 µM | 1 µM | 10 µM | 100 µM | 625 fM
HCI-001, days in culture: 240 | 1.85 | 1.11 | 0.504 | 0.308 | 0.442 | 0.0301 | -0.0763 | 1.57
HCI-001, days in culture: 260 | 2.41 | 0.948 | 1.41 | 0.615 | 0.865 | 0.141 | -0.0313 | 1.64
HCI-001, days in culture: 269 | 1.82 | 1.72 | 0.783 | 0.423 | 0.38 | 0.00899 | -0.0103 | 1.64
HCI-001, days in culture: 327 | 1.6 | 1.01 | 0.868 | 0.329 | 0.501 | -0.124 | -0.199 | 1.75
HCI-001, days in culture: 346 | 1.68 | 1.28 | 0.579 | 0.303 | 0.317 | -0.107 | -0.155 | 1.21
HCI-001, days in culture: 364 | 1.68 | 1.04 | 0.67 | 0.274 | 0.349 | 0.0111 | -0.0729 | 1.63
HCI-010, days in culture: 52 | 1.97 | 2.29 | 1.13 | 0.189 | 0.128 | 0.0169 | -0.00333 | 1.81
HCI-010, days in culture: 65 | 1.32 | 1.34 | 0.941 | 0.326 | 0.276 | 0.0354 | -0.00525 | 1.52
HCI-010, days in culture: 103 | 2.94 | 3.14 | 1.69 | 0.316 | 0.226 | 0.0082 | -0.00621 | 2.77
HCI-011.E2, days in culture: 74 | 2.09 | 2.7 | 1.63 | 0.493 | 0.486 | 0.0744 | -0.0129 | 1.63
HCI-012, days in culture: 143 | 2.11 | 2.61 | 0.686 | 0.0407 | 0.0227 | 0.0103 | -0.00702 | 1.66
HCI-012, days in culture: 162 | 2.25 | 2.64 | 0.53 | 0.0384 | 0.0172 | 0.00772 | -0.00766 | 2.87
HCI-012, days in culture: 201 | 2.24 | 0.795 | 0.629 | -0.145 | -0.118 | -0.159 | -0.214 | 1.98
HCI-027, days in culture: 176 | 2.43 | 1.27 | 0.05 | 0.0166 | 0.376 | -0.165 | -0.237 | 2.12
HCI-027, days in culture: 194 | 2.63 | 1.95 | 0.739 | 0.437 | 0.349 | -0.0181 | -0.0853 | 2.17
HCI-027, days in culture: 201 | 3.22 | 2.72 | 1.35 | 0.611 | 0.234 | 0.136 | -0.0194 | 3.25

CTG-3D luminescence at 96 h
Conditions | 12.5 pM | 0.00025 µM | 0.005 µM | 0.1 µM | 1 µM | 10 µM | 100 µM | 625 fM
HCI-011.E2 | 1.55 | 1.34 | 0.559 | 0.47 | 0.382 | 0.0141 | -0.00792 | 0.902
MDA-MB-231 | 3.87 | 3.12 | 0.22 | 0.0791 | 0.0421 | -0.000441 | -0.0309 | 4.02

CC(C)n1nc(-c2ccc3oc(N)nc3c2)c2c(N)ncnc21 [sapanisertib]
CTG-3D luminescence at 96 h
Conditions | 12.5 pM | 0.00025 µM | 0.005 µM | 0.1 µM | 1 µM | 10 µM | 100 µM | 625 fM
HCI-001, days in culture: 240 | 1.65 | 0.951 | 0.588 | 0.395 | 0.551 | 0.311 | 0.187 | 1.12
HCI-001, days in culture: 260 | 2.4 | 1.29 | 1.61 | 0.622 | 0.652 | 0.468 | 0.21 | 1.6
HCI-001, days in culture: 269 | 1.45 | 1.79 | 1.19 | 0.45 | 0.559 | 0.643 | 0.22 | 1.56
HCI-001, days in culture: 327 | 1.36 | 0.761 | 1.33 | 0.802 | 0.759 | 0.319 | 0.111 | 1.75
HCI-001, days in culture: 346 | 1.38 | 1.32 | 1.09 | 0.528 | 0.577 | 0.315 | 0.15 | 1.13
HCI-001, days in culture: 364 | 1.44 | 1.12 | 1.21 | 0.397 | 0.464 | 0.318 | 0.14 | 1.46
HCI-010, days in culture: 52 | 2.19 | 2.6 | 1.89 | 0.958 | 0.693 | 0.249 | 0.011 | 2.4
HCI-010, days in culture: 65 | 1.61 | 1.71 | 1.34 | 0.701 | 0.447 | 0.0873 | 0.00591 | 1.71
HCI-010, days in culture: 103 | 3.65 | 3.1 | 3 | 1.48 | 1.26 | 0.555 | -0.00132 | 3.02
HCI-011.E2, days in culture: 74 | 2.89 | 2.86 | 1.28 | 0.283 | 0.158 | 0.168 | 0.26 | 2.98
HCI-012, days in culture: 143 | 1.67 | 2.13 | 1.85 | 1.06 | 0.799 | 0.586 | 0.181 | 1.68
HCI-012, days in culture: 162 | 2.13 | 2.28 | 1.6 | 1.27 | 0.748 | 0.846 | 0.197 | 2.82
HCI-012, days in culture: 201 | 2.95 | 2.02 | 1.89 | 0.938 | 1.37 | 0.293 | 0.0781 | 1.73
HCI-027, days in culture: 176 | 2.05 | 1.48 | 2.22 | 0.7 | 0.529 | 0.264 | 0.0926 | 1.82
HCI-027, days in culture: 194 | 1.72 | 1.59 | 1.5 | 0.847 | 0.824 | 0.441 | 0.102 | 1.57
HCI-027, days in culture: 201 | 2.25 | 1.83 | 2.1 | 0.956 | 0.784 | 0.301 | 0.141 | 2.47

CTG-3D luminescence at 96 h
Conditions | 12.5 pM | 0.00025 µM | 0.005 µM | 0.1 µM | 1 µM | 10 µM | 100 µM | 625 fM
HCI-011.E2 | 1.81 | 1.79 | 1.06 | 0.362 | 0.179 | 0.212 | 0.311 | 1.74
MDA-MB-231 | 4.45 | 4.42 | 4.45 | 2.89 | 2.2 | 1.22 | 0.518 | 4.61

Cc1nc(-c2cn3c(n2)-c2ccc(-c4cnn(C(C)(C)C(N)=O)c4)cc2OCC3)n(C(C)C)n1 [taselisib]
CTG-3D luminescence at 96 h
Conditions | 12.5 pM | 0.00025 µM | 0.005 µM | 0.1 µM | 1 µM | 10 µM | 100 µM | 625 fM
HCI-001, days in culture: 240 | 1.68 | 0.982 | 1.07 | 0.482 | 0.567 | 0.383 | 0.093 | 1.22
HCI-001, days in culture: 260 | 2.04 | 1.03 | 1.04 | 0.934 | 0.486 | 0.536 | 0.019 | 1.57
HCI-001, days in culture: 269 | 1.61 | 1.56 | 1.43 | 1.21 | 0.629 | 0.576 | 0.0422 | 1.86
HCI-001, days in culture: 327 | 1.4 | 1.39 | 1.7 | 1.66 | 0.874 | 0.542 | 0.213 | 1.84
HCI-001, days in culture: 346 | 1.31 | 1.22 | 1.02 | 1.1 | 1.15 | 0.603 | 0.269 | 1.12
HCI-001, days in culture: 364 | 1.5 | 1.06 | 1.37 | 0.786 | 0.791 | 0.737 | 0.0204 | 1.53
HCI-010, days in culture: 52 | 2.17 | 2.09 | 1.97 | 2.31 | 1.65 | 0.735 | 0.0132 | 2.15
HCI-010, days in culture: 65 | 1.89 | 1.84 | 1.88 | 1.78 | 1.24 | 0.457 | 0.00794 | 1.82
HCI-010, days in culture: 103 | 3.55 | 3.66 | 3.45 | 3.46 | 2.33 | 0.906 | 0.0169 | 2.92
HCI-011.E2, days in culture: 74 | 2.48 | 2.64 | 1.33 | 0.778 | 0.432 | 0.326 | 0.711 | 2.81
HCI-012, days in culture: 143 | 2.1 | 2.32 | 2.04 | 1.89 | 1.21 | 0.59 | 0.046 | 1.82
HCI-012, days in culture: 162 | 2.56 | 2.08 | 1.72 | 2.19 | 1.1 | 0.703 | 0.0208 | 2.93
HCI-012, days in culture: 201 | 2.64 | 2 | 1.44 | 1.62 | 1.56 | 0.385 | 0.0205 | 1.75
HCI-027, days in culture: 176 | 1.91 | 1.52 | 2.2 | 1.11 | 1.31 | 0.095 | 0.0289 | 1.82
HCI-027, days in culture: 194 | 1.73 | 1.53 | 1.35 | 1.11 | 1.6 | 0.208 | 0.00956 | 1.77
HCI-027, days in culture: 201 | 2.55 | 2.73 | 2.59 | 1.88 | 1.72 | 0.173 | 0.031 | 2.81

CTG-3D luminescence at 96 h
Conditions | 12.5 pM | 0.00025 µM | 0.005 µM | 0.1 µM | 1 µM | 10 µM | 100 µM | 625 fM
HCI-011.E2 | 1.44 | 1.59 | 1.07 | 0.776 | 0.369 | 0.212 | 0.527 | 1.51
MDA-MB-231 | 4.54 | 4.45 | 4.53 | 4.29 | 3.9 | 2.97 | 1.22 | 4.58
